How the values were obtained:
Pythium ultimum = assay: Cucumber damping-off (PU) control test; format: in vivo; conditions: Globisporangium ultimum, 168 h, soil irrigated with 30 ml emulsion at active ingredient concentration of 100 ppm, ratio of healthy seedlings on day 7 after planting vs untreated group
Protocol: 40 ml of sterile soil were placed in plastic cups followed by leveling the surface of the soil. The soil was then irrigated with 30 ml of the aforementioned emulsion of Preparation Example 2 at an active ingredient concentration of 100 ppm. Following irrigation, cucumbers (variety: Sagami Hanjiro) were planted in the soil and covered with 20 ml of contaminated soil (containing Pythium ultimum) from above. The cups were then placed in plastic bags and allowed to stand undisturbed for 3 days in a constant temperature room at 25° C. (dark location […]). Next, the plants were removed from the bags and held in a constant temperature room at 25° C. using a light-dark cycle of 12 hours. On day 7 after planting, the ratios of healthy seedlings were compared between an untreated group and treated group to calculate control effects (control values).

[1] = test system: tomato late blight pathogen (Phytophthora infestans); assay: whole plant or invertebrate; format: in vivo; conditions: 96 h, read-out: control value
Pythium aphanidermatum = assay: Antimicrobial test (mycelia growth inhibition); format: cell-based; conditions: compound concentration of 1 ppm, PSY medium, 25° C., days 3 to 7 of culturing, read-out: mycelia growth inhibition rate
Protocol: The compound according to the present invention was dissolved in dimethylsulfoxide and diluted to double the prescribed concentration in a 96-well microplate using PSY medium to obtain a drug solution. On the other hand, a diluted dimethylsulfoxide solution was prepared using PSY medium for use as an untreated group.
A suspension of liquid-cultured test microorganisms (Pythium aphanidermatum) was mixed with an equal volume of the drug solution and cultured in a dark location at 25° C. Mycelia growth was observed on days 3 to 7 of culturing to determine mycelia growth inhibition rates.

Q: With COC(OC)C(=O)Nc1cccc(CO/N=C(/c2ccccc2)c2nnnn2C)n1 [a-3] as the compound, how does the melting point read?
A: The melting point was 88 to 90 °C.

Q: What about the pest or weed control at 100 ppm (Pythium ultimum) of the same compound?
A: Its pest or weed control at 100 ppm is no less than 50%.

Q: And the pest or weed control at 100 µg/mL [1]?
A: Its pest or weed control at 100 µg/mL is no less than 70%.

Q: And the inhibition at 1 ppm (Pythium aphanidermatum)?
A: Its inhibition at 1 ppm is no less than 50%.

Q: What does the source list for Cn1nnnc1/C(=N\OCc1cccc(NC(=O)CC2OCCCO2)n1)c1ccccc1 [a-14]?
A: melting point: 107 to 108 °C; pest or weed control at 100 ppm (Pythium ultimum): ≥ 50%; pest or weed control at 100 µg/mL [1]: ≥ 70%; inhibition at 1 ppm (Pythium aphanidermatum): ≥ 50%

Q: Which melting point does the source give for CCOC(C)(OCC)C(=O)Nc1cccc(CO/N=C(/c2ccccc2)c2nnnn2C)n1.Cl [a-33] here?
A: Its melting point is 70 to 73 °C.

Q: And the inhibition at 1 ppm (Pythium aphanidermatum)?
A: The inhibition at 1 ppm was no less than 50%.

Q: For COCC(C)C(=O)Nc1cccc(CO/N=C(/c2ccccc2)c2nnnn2C)n1 (centres unmarked) [b-3], which melting point is on record?
A: Its melting point is 66 to 68 °C.

Q: What about the pest or weed control at 100 ppm (Pythium ultimum) of the same compound?
A: Its pest or weed control at 100 ppm is no less than 50%.

Q: What about the inhibition at 1 ppm (Pythium aphanidermatum) of the same compound?
A: Its inhibition at 1 ppm is no less than 50%.

Q: Which melting point does the source give for COC(C)(C)C(=O)Nc1cccc(CO/N=C(/c2ccccc2)c2nnnn2C)n1 [b-6] here?
A: The melting point was 104 to 105 °C.

Q: And the inhibition at 1 ppm (Pythium aphanidermatum)?
A: The inhibition at 1 ppm was no less than 50%.

Q: Which results are given for Cn1nnnc1/C(=N\OCc1cccc(NC(=O)C(C)(C)O)n1)c1ccccc1 [b-7]?
A: melting point: 144 to 146 °C; inhibition at 1 ppm (Pythium aphanidermatum): ≥ 50%

Q: For COCC(C)(C)C(=O)Nc1cccc(CO/N=C(/c2ccccc2)c2nnnn2C)n1 [b-8], which melting point is on record?
A: Its melting point is 60 to 61 °C.

Q: What about the pest or weed control at 100 ppm (Pythium ultimum) of the same compound?
A: Its pest or weed control at 100 ppm is no less than 50%.

Q: And the inhibition at 1 ppm (Pythium aphanidermatum)?
A: The inhibition at 1 ppm was no less than 50%.

Q: For COCCC(C)(C)C(=O)Nc1cccc(CO/N=C(/c2ccccc2)c2nnnn2C)n1 [b-10], which melting point is on record?
A: Its melting point is 86 to 87 °C.

Q: What about the pest or weed control at 100 ppm (Pythium ultimum) of the same compound?
A: The pest or weed control at 100 ppm was no less than 50%.

Q: What about the inhibition at 1 ppm (Pythium aphanidermatum) of the same compound?
A: The inhibition at 1 ppm was no less than 50%.

Q: What does the source list for Cn1nnnc1/C(=N\OCc1cccc(NC(=O)OCC2COCO2)n1)c1ccccc1 (centres unmarked) [c-4]?
A: melting point: 104 to 105 °C; pest or weed control at 100 ppm (Pythium ultimum): ≥ 50%; pest or weed control at 100 µg/mL [1]: ≥ 70%; inhibition at 1 ppm (Pythium aphanidermatum): ≥ 50%

Q: With COC(COC(=O)Nc1cccc(CO/N=C(/c2ccccc2)c2nnnn2C)n1)OC [c-7, (Z)-(1-methyl-1H-tetrazol-5-yl)phenylmethanone-o-[2-(2,2-dimethoxyethoxycarbonylamino)pyridin-6-ylmethyl]oxime] as the compound, how does the pest or weed control at 100 ppm (Pythium ultimum) read?
A: The pest or weed control at 100 ppm was no less than 50%.

Q: What about the pest or weed control at 100 µg/mL [1] of the same compound?
A: Its pest or weed control at 100 µg/mL is no less than 70%.

Q: What about the inhibition at 1 ppm (Pythium aphanidermatum) of the same compound?
A: The inhibition at 1 ppm was no less than 50%.

Q: For CCOC(CCOC(=O)Nc1cccc(CO/N=C(/c2ccccc2)c2nnnn2C)n1)OCC [c-8], which pest or weed control at 100 ppm (Pythium ultimum) is on record?
A: Its pest or weed control at 100 ppm is no less than 50%.

Q: And the pest or weed control at 100 µg/mL [1]?
A: Its pest or weed control at 100 µg/mL is no less than 70%.

Q: And the inhibition at 1 ppm (Pythium aphanidermatum)?
A: The inhibition at 1 ppm was no less than 50%.

Q: Which results are given for COC(CC(C)(C)OC(=O)Nc1cccc(CO/N=C(/c2ccccc2)c2nnnn2C)n1)OC [c-9]?
A: pest or weed control at 100 ppm (Pythium ultimum): ≥ 50%; pest or weed control at 100 µg/mL [1]: ≥ 70%; inhibition at 1 ppm (Pythium aphanidermatum): ≥ 50%

Q: With CCOC(COC(=O)Nc1cccc(CO/N=C(/c2ccccc2)c2nnnn2C)n1)OCC [c-10] as the compound, how does the pest or weed control at 100 ppm (Pythium ultimum) read?
A: Its pest or weed control at 100 ppm is no less than 50%.

Q: What about the pest or weed control at 100 µg/mL [1] of the same compound?
A: Its pest or weed control at 100 µg/mL is no less than 70%.

Q: What about the inhibition at 1 ppm (Pythium aphanidermatum) of the same compound?
A: The inhibition at 1 ppm was no less than 50%.

Q: Which melting point does the source give for CCOC(OC(=O)Nc1cccc(CO/N=C(/c2ccccc2)c2nnnn2C)n1)C(F)(F)F (stereo not drawn) [d-1] here?
A: Its melting point is 123 to 124 °C.

Q: What about the pest or weed control at 100 µg/mL [1] of the same compound?
A: Its pest or weed control at 100 µg/mL is no less than 70%.

Q: What about the inhibition at 1 ppm (Pythium aphanidermatum) of the same compound?
A: Its inhibition at 1 ppm is no less than 50%.

Q: Which melting point does the source give for Cn1nnnc1/C(=N\OCc1cccc(NC(=O)OC2CCOCC2)n1)c1ccccc1 [d-3] here?
A: Its melting point is 72 to 73 °C.

Q: And the pest or weed control at 100 µg/mL [1]?
A: The pest or weed control at 100 µg/mL was no less than 70%.

Q: And the inhibition at 1 ppm (Pythium aphanidermatum)?
A: The inhibition at 1 ppm was no less than 50%.

Q: Which results are given for Cn1nnnc1/C(=N\OCc1cccc(NC(=O)OC2CCOC2)n1)c1ccccc1 (stereo not drawn) [d-4]?
A: melting point: 76 to 78 °C; pest or weed control at 100 µg/mL [1]: ≥ 70%

Q: Which pest or weed control at 100 ppm (Pythium ultimum) does the source give for COCCCC(C)(C)OC(=O)Nc1cccc(CO/N=C(/c2ccccc2)c2nnnn2C)n1 [d-8] here?
A: The pest or weed control at 100 ppm was no less than 50%.

Q: And the pest or weed control at 100 µg/mL [1]?
A: Its pest or weed control at 100 µg/mL is no less than 70%.

Q: And the inhibition at 1 ppm (Pythium aphanidermatum)?
A: The inhibition at 1 ppm was no less than 50%.

Q: Which pest or weed control at 100 ppm (Pythium ultimum) does the source give for CCOCCC(C)OC(=O)Nc1cccc(CO/N=C(/c2ccccc2)c2nnnn2C)n1 (stereo not drawn) [d-13] here?
A: The pest or weed control at 100 ppm was no less than 50%.

Q: And the pest or weed control at 100 µg/mL [1]?
A: The pest or weed control at 100 µg/mL was no less than 70%.

Q: What about the inhibition at 1 ppm (Pythium aphanidermatum) of the same compound?
A: Its inhibition at 1 ppm is no less than 50%.

Q: Which pest or weed control at 100 ppm (Pythium ultimum) does the source give for COCCC(C)OC(=O)Nc1cccc(CO/N=C(/c2ccccc2)c2nnnn2C)n1 (stereo not drawn) [d-14] here?
A: The pest or weed control at 100 ppm was no less than 50%.

Q: What about the pest or weed control at 100 µg/mL [1] of the same compound?
A: Its pest or weed control at 100 µg/mL is no less than 70%.

Q: What about the inhibition at 1 ppm (Pythium aphanidermatum) of the same compound?
A: Its inhibition at 1 ppm is no less than 50%.

Q: For CCOCCCOC(=O)Nc1cccc(CO/N=C(/c2ccccc2)c2nnnn2C)n1 [d-15], which pest or weed control at 100 ppm (Pythium ultimum) is on record?
A: Its pest or weed control at 100 ppm is no less than 50%.

Q: And the pest or weed control at 100 µg/mL [1]?
A: The pest or weed control at 100 µg/mL was no less than 70%.

Q: And the inhibition at 1 ppm (Pythium aphanidermatum)?
A: The inhibition at 1 ppm was no less than 50%.

Q: Which results are given for CCOCC(COC(=O)Nc1cccc(CO/N=C(/c2ccccc2)c2nnnn2C)n1)OCC (stereo not drawn) [d-17]?
A: pest or weed control at 100 ppm (Pythium ultimum): ≥ 50%; pest or weed control at 100 µg/mL [1]: ≥ 70%; inhibition at 1 ppm (Pythium aphanidermatum): ≥ 50%

Q: With CCOCC(CCOC(=O)Nc1cccc(CO/N=C(/c2ccccc2)c2nnnn2C)n1)OCC (stereo not drawn) [d-18] as the compound, how does the pest or weed control at 100 ppm (Pythium ultimum) read?
A: Its pest or weed control at 100 ppm is no less than 50%.

Q: What about the pest or weed control at 100 µg/mL [1] of the same compound?
A: The pest or weed control at 100 µg/mL was no less than 70%.

Q: What about the inhibition at 1 ppm (Pythium aphanidermatum) of the same compound?
A: Its inhibition at 1 ppm is no less than 50%.

Source: US9156816B2 (priority 2010, dated 2015)
